From PMC8411522, “In vitro inhibitory effect of obtusofolin on the activity of CYP3A4, 2C9, and 2E1” (BMC Complementary Medicine and Therapies, 2021)

Experiments:
[1] = design: method as in PMID 33119923; conditions: rats, 1.3 mg/kg obtusofolin; cited from earlier work
CYP2C9 [2] = biological target: T1, CYP2C9 (Homo sapiens, UniProt P11712); assay: CYP2C9 inhibition in pooled human liver microsomes (diclofenac 4′-hydroxylation); assay type: in vitro ADME
T1 construct: Pooled HLMs were obtained from BD Bioscience (Woburn, USA); tissue BD Bioscience; host or cells: pooled human liver microsomes
Description: (§1) The investigation was conducted in pool human liver microsomes in vitro. Except for the HLMs treated with 100 μM obtusofolin, specific inhibitors, and negative control HLMs were also employed.
(§2) The incubation volume was 200 μL containing potassium phosphate buffer (pH 7.4), an NADPH-generating system composed of NADP^+, glucose-6-phosphate, glucose-6-phosphate dehydrogenase, and MgCl2, probe substrates, HLMs, and obtusofolin or positive inhibitors. The experiments for each CYP isoforms were performed in triplicate and the obtained results were represented as mean value ± SD.
(§3) The reactions were initiated by adding the NADPH-generating system after a 3-min preincubation at 37 °C. The reactions were terminated by adding 100 μL acetonitrile or 10% (v:v) trichloroacetic. The mixture was placed on ice and centrifuged at 12,000 rpm for 10 min. A total of 20 μL supernatant was obtained for the analysis of metabolites by HPLC.
(§4) Firstly, 100 μM obtusofolin was incubated with the above incubation system in HLMs to evaluate its effect on the activity of CYP450s. Then the dose-dependent experiments were performed to obtain corresponding parameters in the presence of 0, 2.5, 5, 10, 25, 50, and 100 μM obtusofolin. The concentrations of probe substrates were 20–100 μM testosterone for CYP3A4, 5–20 μM diclofenac for CYP2C9, and 25–250 μM chlorzoxazone for CYP2E1.
(§5) The enzyme kinetic parameters were obtained by the least-squares linear regression. The inhibition data were fitted with non-linear regression according to the following equation: V=VmaxS/Km1+I/Ki+Sfor competitive inhibitionCYP2C9 and 2E1; V=VmaxS/Km+S1+I/Kifor non−competitive inhibitionCYP3A4.
(§6) where I is the concentration of the compound, Ki is the inhibition constant, S is the concentration of the substrate and Km is the substrate concentration at half the maximum velocity (Vmax) of the reaction. The mechanism of the inhibition was inspected using the Lineweaver–Burk plots and the enzyme inhibition models. The data comparison was performed using the Student’s t-test and performed using IBM SPSS statistics 20 (SPSS Inc., Chicago, IL, USA).

CYP3A4 [3] = biological target: T2, CYP3A4 (Homo sapiens, UniProt P08684); assay: Time-dependent inhibition of CYP3A4 in pooled HLMs; assay type: in vitro ADME
T2 construct: Pooled HLMs were obtained from BD Bioscience (Woburn, USA); tissue BD Bioscience; host or cells: pooled human liver microsomes
Description: (§7) The time-dependent inhibition experiments were conducted at the incubation time of 0, 5, 10, 15, and 30 min at 37 °C with 20 μM obtusofolin. After the incubation, a total of 20 μL aliquot was transferred to another tube with the NADPH-generating system and probe substrates and incubation for a specific time. The reactions were terminated by the addition of acetonitrile and placed on ice for further analysis.
The time-dependent characteristic was estimated by the values of KI and Kinact obtained from further experiments. The incubation was performed with 0, 2, 5, 10, 20, and 50 μM obtusofolin and a higher concentration of substrates (approximately 4-fold to Km) for 0, 5, 10, 15, and 30 min. The incubation scheme was performed as described above. The fitting equation to obtain the value of KI and Kinact was: 1/Kobs=KI/Kinact∗1/I+1/Kinact
where Kobs is the pseudo-first-order rate constant of inactivation at inactivated concentration [I], Kinact is the maximum inactivation rate (a theoretical value that cannot be experimentally observed), and KI is the inactivated concentration when the rate of inactivation reaches half of Kinact.

CYP2C9 [4] = biological target: T1, CYP2C9; assay: Time-dependent inhibition of CYP2C9 in pooled HLMs; assay type: in vitro ADME; conditions: 20 μM obtusofolin, 5 to 30 min
Description: as §7

CYP3A4 [5] = biological target: T2, CYP3A4; assay: CYP3A4 inhibition in pooled human liver microsomes (testosterone 6β-hydroxylation); assay type: in vitro ADME
Description: as §1, §2, §3, §4, §5, §6

CYP2E1 [6] = biological target: T3, CYP2E1 (Homo sapiens, UniProt P05181); assay: Time-dependent inhibition of CYP2E1 in pooled HLMs; assay type: in vitro ADME; conditions: 20 μM obtusofolin, 5 to 30 min
T3 construct: Pooled HLMs were obtained from BD Bioscience (Woburn, USA); tissue BD Bioscience; host or cells: pooled human liver microsomes
Description: as §7

CYP2E1 [7] = biological target: T3, CYP2E1; assay: CYP2E1 inhibition in pooled human liver microsomes (chlorzoxazone 6-hydroxylation); assay type: in vitro ADME
Description: as §1, §2, §3, §4, §5, §6

[8] = 100 μM obtusofolin, pooled HLMs, P < 0.05 vs negative control
[9] = Lineweaver–Burk plots, best fit
[10] = pooled HLMs, 0, 2.5, 5, 10, 25, 50, 100 μM obtusofolin, mean ± SD, triplicate

T2 sequence (P08684 whole entry): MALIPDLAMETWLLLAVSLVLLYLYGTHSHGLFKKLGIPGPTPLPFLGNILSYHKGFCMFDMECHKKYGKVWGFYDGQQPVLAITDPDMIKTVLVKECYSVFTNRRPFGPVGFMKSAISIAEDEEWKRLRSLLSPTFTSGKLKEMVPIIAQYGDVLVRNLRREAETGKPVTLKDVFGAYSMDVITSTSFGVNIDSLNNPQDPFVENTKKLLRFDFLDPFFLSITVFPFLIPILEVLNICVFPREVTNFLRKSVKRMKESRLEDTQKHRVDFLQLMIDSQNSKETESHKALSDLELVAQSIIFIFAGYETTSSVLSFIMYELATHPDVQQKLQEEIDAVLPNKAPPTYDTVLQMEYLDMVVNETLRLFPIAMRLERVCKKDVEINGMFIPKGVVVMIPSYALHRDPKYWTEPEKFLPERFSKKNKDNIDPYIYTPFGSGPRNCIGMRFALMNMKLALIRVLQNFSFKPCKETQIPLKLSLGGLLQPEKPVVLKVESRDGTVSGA
T3 sequence (P05181 whole entry): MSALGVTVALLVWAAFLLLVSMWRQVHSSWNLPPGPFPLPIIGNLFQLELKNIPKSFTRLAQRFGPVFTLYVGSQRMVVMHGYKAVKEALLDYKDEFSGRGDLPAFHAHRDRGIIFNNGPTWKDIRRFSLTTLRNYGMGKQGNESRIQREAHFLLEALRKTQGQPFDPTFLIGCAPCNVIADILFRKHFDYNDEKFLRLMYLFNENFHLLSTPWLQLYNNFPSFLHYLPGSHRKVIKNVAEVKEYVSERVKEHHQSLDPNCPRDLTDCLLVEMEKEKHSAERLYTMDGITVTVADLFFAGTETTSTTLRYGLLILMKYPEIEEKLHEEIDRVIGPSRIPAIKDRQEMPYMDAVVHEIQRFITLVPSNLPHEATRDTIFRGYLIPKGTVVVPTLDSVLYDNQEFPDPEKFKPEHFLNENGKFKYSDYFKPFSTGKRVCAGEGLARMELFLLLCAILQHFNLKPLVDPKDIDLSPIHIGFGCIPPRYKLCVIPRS
T1 sequence (P11712 whole entry): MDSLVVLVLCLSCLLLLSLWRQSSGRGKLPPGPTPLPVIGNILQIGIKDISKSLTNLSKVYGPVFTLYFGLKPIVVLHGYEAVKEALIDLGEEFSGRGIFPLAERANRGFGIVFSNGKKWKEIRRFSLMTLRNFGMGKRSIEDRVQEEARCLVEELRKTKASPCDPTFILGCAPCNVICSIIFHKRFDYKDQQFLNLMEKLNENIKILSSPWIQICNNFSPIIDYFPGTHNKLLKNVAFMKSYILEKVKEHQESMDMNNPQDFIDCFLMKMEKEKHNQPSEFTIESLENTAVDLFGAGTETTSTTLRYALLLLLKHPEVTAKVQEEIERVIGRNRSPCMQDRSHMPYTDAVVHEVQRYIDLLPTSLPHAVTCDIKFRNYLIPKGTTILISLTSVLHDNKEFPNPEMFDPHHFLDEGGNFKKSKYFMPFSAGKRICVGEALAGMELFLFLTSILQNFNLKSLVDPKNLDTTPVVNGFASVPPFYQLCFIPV

COc1c(O)c(C)cc2c1C(=O)c1c(O)cccc1C2=O [obtusofolin]
maximum (plasma concentration) [1]: 152.5 ± 62.3 ng/mL | activity of CYP2C9 (CYP2C9 [2]; [8]): significantly suppressed | inhibition model of CYP2C9 (CYP2C9 [2]; [9]): competitive | Ki (CYP2C9 [2]; competitive model, 5–20 μM diclofenac, pooled HLMs): 5.54 µM | IC50 (CYP2C9 [2]; [10]): 10.8 ± 0.13 µM | inhibitory effect on CYP3A4 versus incubation time (CYP3A4 [3]; 20 μM obtusofolin, 5 to 30 min): increased with the incubation time | kinact (CYP3A4 [3]; human, pooled human liver microsomes, 0, 2, 5, 10, 20, 50 μM obtusofolin, 0-30 min, substrate approx. 4-fold Km): 0.000858 s⁻¹ | CYP3A4 inactivated per minute (CYP3A4 [3]; saturating concentration of obtusofolin): approximately 5.15% | inhibitory effect on CYP2C9 versus incubation time (CYP2C9 [4]): not affected | activity of CYP3A4 (CYP3A4 [5]; [8]): significantly suppressed | inhibition model of CYP3A4 (CYP3A4 [5]; [9]): non-competitive | Ki (CYP3A4 [5]; non-competitive model, 20–100 μM testosterone, pooled HLMs): 8.82 µM | IC50 (CYP3A4 [5]; [10]): 17.1 ± 0.25 µM | inhibitory effect on CYP2E1 versus incubation time (CYP2E1 [6]): not affected | activity of CYP2E1 (CYP2E1 [7]; [8]): significantly suppressed | inhibition model of CYP2E1 (CYP2E1 [7]; [9]): competitive | Ki (CYP2E1 [7]; competitive model, 25–250 μM chlorzoxazone, pooled HLMs): 7.79 µM | IC50 (CYP2E1 [7]; [10]): 15.5 ± 0.16 µM
